Key:
[1] = test system: caspase-3 interactions with ASM, IRG, PGM, iNOS
Experimental: For this purpose, protein-protein interactions were determined in a yeast two-hybrid system by the method described in Uetz, P., et al., Nature 403, 623–627 (2000) and Ito, T., et al., PNAS, 97, 1143–1147 (2000). The baits were all known proteins involved in apoptotic cascades. The preys were a library of macrophage genes (mRNA) expressed in response to cytokines that induce apoptosis. Mating pairs or transfectants were exposed to continuous nitric oxide presence at levels and flux rates mimicking those which are generated in macrophages, over 18 hours (the time course, over which apoptosis occurs in these cells). Room air was used in the determinations to mimic the cell condition at first and subsequently low pO2 (about 5 mm Hg) was used to improve specificity and increase yield. New partners and/or inhibition of partners that were otherwise present, were sought.

[2] = biological target: T1, caspase-3 interaction with iNOS / ASM (Homo sapiens, UniProt P42574); experiment: Modified yeast two-hybrid, NO-dependent growth of iNOS/caspase-3 and ASM/caspase-3 clones; assay type: cell-based; settings: 72 hrs, triple-deficient medium
T1 construct: expressed in transfected cells; host or cells: Saccharomyces cerevisiae CG-1945 Δyhb1
T1 sequence (P42574 1-277): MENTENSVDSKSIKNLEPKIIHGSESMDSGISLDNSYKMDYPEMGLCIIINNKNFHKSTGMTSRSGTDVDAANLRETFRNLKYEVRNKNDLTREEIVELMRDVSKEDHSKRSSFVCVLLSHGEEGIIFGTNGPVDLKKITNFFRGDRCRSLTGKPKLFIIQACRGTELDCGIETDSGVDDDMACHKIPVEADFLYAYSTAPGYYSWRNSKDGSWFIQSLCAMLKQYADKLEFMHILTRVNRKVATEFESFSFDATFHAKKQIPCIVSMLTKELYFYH
Experimental: (§1) Yeast (Δyhb1) were transformed with Gal4 BD-caspase-3 plasmid (bait) and a cDNA library (Gal4 AD prey plasmids) derived from activated (NO generating) macrophages. Screening was performed as described in the methods below. DETA-NO at less than 300 μM generates NO without inhibiting yeast growth (monitored by absorbance at 600 nm). Steady state NO concentrations are maintained at ˜100 nM–1 μM range for several days as measured with an NO electrode (not shown).
Auxotrophic selection was carried out on agar plates (15 cm in diameter) enriched in 50 mM phosphate buffer (pH 7.2; His-Trp-Leu (triple)-deficient buffered medium (TDBM)). […] Prey plasmids were isolated from positive yeast clones and then re-introduced into the bait strain to confirm bait-prey interactions. Method 2: After cells were seeded on 1.5% agar they were covered with 3% low melting point agar, which in turn was layered with culture medium. NO donors (e.g. DETA-NO; 300 μM final concentration) were added to the liquid layer every 24 hours. Colonies are grown for 4 days as described in ref 9. Method 3:
Auxotrophic selection was carried out in TDBM. Transformation with the cDNA library was followed by overnight growth in medium deficient in tryptophan and leucine. Transformants were then grown for 3 days in His-deficient medium supplemented with DETA-NO (typically 200 μM final concentration). […]

[3] = assay type: physicochemical
Experimental: as §1
(§2) To assess the possibility of NO-dependent regulation of protein-protein interactions in a cellular context, a modified yeast two-hybrid screening methodology was developed. The first step was to delete the yeast flavohemoglobin gene (Liu et al., 2000), which consumes NO very efficiently and thus obfuscates NO signaling. […] It was also necessary to establish a concentration range of DETA-NO over which physiological amounts of NO could be generated in these assays without impairing yeast growth (FIG. 1A) (100 μM DETA-NO produces steady state concentrations of ˜300 nM NO in yeast culture medium, as determined using an NO electrode)
Purified caspase-3 was incubated in the presence or absence 20 μM DETA-NO for 60 min (30 nM steady state NO), followed by incubation with ASM at 37° C. for 2 hrs, and IP with caspase-3 antibody. […] S-nitrosylation of caspase-3 by NO was separately verified by photolysis-chemiluminesence (Mannick et al., 1999). The interaction of caspase-3 with ASM was measured as ASM activity in caspase-3 IP's (pH 5.0). Little or no ASM activity was present in IP's with caspase-3 antibody of either caspase-3 or ASM in isolation.
To determine the relevant target(s) of NO, ASM/caspase-3 co-precipitations were carried out following NO treatment of each partner alone. Using an ASM activity assay, the amounts of ASM that could be precipitated with a procaspase-3 antibody was assessed from co-incubates (2 hours at 37° C.) of ASM (20 pmol) and caspase-3 in limiting amounts (2.5 pmol). […]

Yeast (Δyhb1) = assay type: cell-based, Saccharomyces cerevisiae; settings: growth monitored by absorbance at 600 nm
Experimental: The YHB1 gene was deleted from yeast strain CG-1945 and the absence of NO consumption activity was verified (Liu et al., 2000). Yeast two-hybrid screening was then performed in the CG-1945-Ayhbl host. […]
as §1, with “Screening was performed as described in the methods below.” left out
as §2, with “developed.” for “developed. The first step was to delete the yeast flavohemoglobin gene (Liu et al., 2000), which consumes NO very efficiently and thus obfuscates NO signaling.”

[4] = biological target: T2, caspase-3/ASM interaction in HEK-293 cells (Homo sapiens, UniProt P42574); experiment: Caspase-3 immunoprecipitation, ASM blot, HEK-293 cells exposed to DETA-NO; assay type: cell-based; settings: 200 μM DETA-NO
T2 construct: endogenous in cells; host or cells: HEK-293
T2 sequence (P42574 29-277): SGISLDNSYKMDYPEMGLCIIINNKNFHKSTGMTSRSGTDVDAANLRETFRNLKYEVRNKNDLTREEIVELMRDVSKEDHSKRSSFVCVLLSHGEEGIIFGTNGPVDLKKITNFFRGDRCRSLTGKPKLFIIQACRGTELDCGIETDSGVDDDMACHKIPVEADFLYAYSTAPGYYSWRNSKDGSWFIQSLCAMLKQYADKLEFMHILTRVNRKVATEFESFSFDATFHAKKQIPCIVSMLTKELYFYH
T2 sequence (P17405 47-631 partner): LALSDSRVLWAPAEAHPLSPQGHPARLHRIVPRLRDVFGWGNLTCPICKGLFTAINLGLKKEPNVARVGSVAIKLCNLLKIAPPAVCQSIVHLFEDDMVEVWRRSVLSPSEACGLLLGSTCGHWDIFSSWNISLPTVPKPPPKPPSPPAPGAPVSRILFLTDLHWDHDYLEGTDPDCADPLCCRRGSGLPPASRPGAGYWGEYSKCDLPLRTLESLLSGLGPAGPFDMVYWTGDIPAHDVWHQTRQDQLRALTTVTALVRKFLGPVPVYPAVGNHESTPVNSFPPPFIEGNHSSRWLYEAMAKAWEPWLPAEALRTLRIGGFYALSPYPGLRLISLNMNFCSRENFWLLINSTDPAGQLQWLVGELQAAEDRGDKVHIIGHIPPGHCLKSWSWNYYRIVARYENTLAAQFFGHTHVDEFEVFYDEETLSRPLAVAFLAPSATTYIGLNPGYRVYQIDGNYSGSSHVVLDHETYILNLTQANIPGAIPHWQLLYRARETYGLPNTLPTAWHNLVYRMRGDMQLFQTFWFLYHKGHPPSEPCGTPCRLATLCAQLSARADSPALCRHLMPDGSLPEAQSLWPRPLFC
Experimental: (§3) Thirty million cells were lysed by gentle homogenization in 1 ml IP buffer (10 mM NaPi, 100 mM NaCl, 1 mM EDTA, pH 7.9, with protease inhibitor cocktail). The supernatant obtained by centrifugation at 20,000 g for 10 min was used for immunoprecipitation. Caspase-3 immunoprecipitates (2.5 μg anti-caspase-3 monoclonal antibody, Transduction Laboratories) were washed, separated on 10% SDS-PAGE, and blotted with ASM antisera (Santa Cruz Biotechnology); 5% of the sample was blotted for caspase-3.
Bulotta et al., 2001; De Nadal et al., 2000). […] To define further the NO requirement for this interaction, caspase-3 was immunoprecipitated from wild-type HEK cells and from HEK cells stably transfected with nNOS (Bredt et al., 1992), in the presence and absence of the NOS inhibitor L-NMMA. Little or no ASM was pulled down in precipitates from wild-type HEK cells, whereas ASM was readily detected in the precipitates from nNOS-expressing cells (FIG. 2). Moreover, ASM/caspase-3 interactions were observed not only between the 57 kD mature form of ASM, but also with the ASM proform (75 kD) and a smaller processed form (47 kD), which may be alternatively regulated (Ferlinz et al., 1994; Hurwitz et al., 1994).

[5] = test system: ASM/caspase-3 interaction in nNOS-expressing HEK cells; experiment: Caspase-3 IP from nNOS-expressing HEK cells, ASM isoforms; assay type: cell-based, Human; settings: L-NMMA 3 mM
Experimental: as §3
Amounts of ASM isoforms (47, 57, 75 kDa) in caspase-3 immunoprecipitates (IP) from wild type (WT) vs. nNOS-expressing HEK cells were normalized with respect to the amounts of caspase-3 in the IPs (FIG. 2, bar graphs); IPs were performed in the presence and absence of the NOS inhibitor, LNMMA (3 mM). nNOS vs. WT (single asterisk, P<0.01) and nNOS vs. nNOS+LNMMA (double asterisk, p<0.05). A and B, n=7–14; C, n=3–5.
Bulotta et al., 2001; De Nadal et al., 2000). […] To define further the NO requirement for this interaction, caspase-3 was immunoprecipitated from wild-type HEK cells and from HEK cells stably transfected with nNOS (Bredt et al., 1992), in the presence and absence of the NOS inhibitor L-NMMA. Little or no ASM was pulled down in precipitates from wild-type HEK cells, whereas ASM was readily detected in the precipitates from nNOS-expressing cells (FIG. 2). […]

[6] = biological target: T3, eNOS/caspase-3 interaction in eNOS-expressing HEK cells (Bos taurus, UniProt P29473); experiment: Caspase-3 IP from eNOS-expressing HEK cells, amounts of eNOS; assay type: cell-based, Human; settings: L-NMMA 3 mM with L-arginine 1 mM/Ca2+ 200 μM
T3 construct: expressed in transfected cells; host or cells: HEK-293 expressing eNOS
Experimental: HEK cell lysates from wild type (WT), nNOS- and eNOS-expressing cells were immunoprecipitated with caspase-3 monoclonal antibodies and blotted (IB) for nNOS, eNOS, and caspase-3, respectively. eNOS, nNOS and caspase-3 in whole cell lysates (Lysate) and in IPs from those lysates (7–20% SDS-PAGE) are shown. Data are representative of 5 similar experiments. eNOS and nNOS were not detectable in control IPs (not shown).
eNOS-expressing HEK cells were treated with L-arginine (1 mM)/Ca^2+ (200 μM) (to activate NOS) in the presence or absence of L-NMMA (3 mM) (to inhibit NOS activation). Amounts of eNOS were quantified from scanned Western blots (7–20% SDS-PAGE) and normalized with respect to amounts of caspase in the IP (bar graph), (n=3).
To probe further the physiological relevance of NO-dependent protein-protein interactions of NOS, the effects of NOS activity on binding of caspase-3 were assessed. […] Thus, NOS reversibly regulates its own binding to capase-3 through NO production.

OO [hydrogen peroxide]
effect of presence of hydrogen peroxide on determined interactions [1]: did not produce or modify the majority of determined interactions | interaction dependent on hydrogen peroxide in the 4 clones ([1]; added repeatedly or generated continuously with glucose oxidase): none was found

NCCN(CCN)/[N+]([O-])=N/O [DETA-NO, diethylenetriamine-NO]
concentration that optimally induced in yeast the interactions of caspase-3 with ASM and iNOS [2]: 200 µM | half-life [3]: ~18 h | steady state / maximum NO concentration ([3]; 20 μM DETA-NO, 60 min): 30 nM | steady state concentration of NO ([3]; 100 μM DETA-NO, yeast culture medium, NO electrode): ~300 nM | DETA-NO concentration that generates NO without inhibiting yeast growth (Yeast (Δyhb1)): less than 300 μM | co-precipitation of ASM with caspase-3 [4]: immunoprecipitation of caspase-3 brought down the 57 kD active form of ASM

CNC(=N)NCCC[C@H](N)C(=O)O [L-NMMA]
effect on interaction between ASM isoforms and caspase-3 [5]: significantly reduced the interaction | effect on eNOS interaction with caspase-3 after NOS activation [6]: almost completely reversed this effect
